According to patent publication EP0293880B1, “Antihyperlipidemic and antiatherosclerotic urea compounds” (priority 1987, dated 1988):

How the values were obtained:
[1] = biological target: acyl-CoA:cholesterol acyl-transferase (ACAT); experiment: In vitro ACAT inhibition test (radio-labeled cholesterol oleate formed from radio-labeled oleic acid in rabbit intestinal microsomes); type: biochemical; conditions: tissue preparation containing rabbit intestinal microsomes; concentration required to inhibit 50% expression of the enzyme; read-out: IC₅₀
Procedure: The ability of representative compounds of the present invention to inhibit ACAT was measured using an in vitro test more fully described in Field, F. J. and Salone, R. G., Biochemica et Biophysica 712: 557-570 (1982). The test assesses the ability of a test compound to inhibit the acylation of cholesterol by oleic acid by measuring the amount of radio-labeled cholesterol oleate formed from radio-labeled oleic acid in a tissue preparation containing rabbit intestinal microsomes. The data appear in Table 1 where they are expressed as IC₅₀ values; i.e. the concentration of test compound required to inhibit 50% expression of the enzyme.

[2] = In vivo screen PCC (cholesterol-fed rats, total blood cholesterol); parameters: species or system male Sprague-Dawley rats; conditions: after one week; for % Change: change of total blood cholesterol versus control, 0.05% of the test drug in the diet; for Total Blood Cholesterol: rats on chow diet with 5.5% peanut oil, 1.5% cholesterol, 0.3%-0.5% cholic acid, 0.05% of the test drug admixed into the diet
From the text: In one in vivo screen, designated PCC, male Sprague-Dawley rats (approximately 200 g body weight) are randomly divided into groups and provided ad libidum a regular chow diet (Purina No. 5002, Ralston Purina Co., 711 West Fuesser Road, Mascoutah, Illinois, 62224, USA), supplemented with 5.5% peanut oil, 1.5% cholesterol, and 0.3%-0.5% cholic acid, together with 0.05% of the test drug which is admixed into the diet. After one week the animals are etherized and a blood sample is taken from the heart and mixed with 0.14% ethylenediamine tetraacetic acid (EDTA) to measure the total cholesterol.

| SMILES | IC50 [1] | % Change [2] | Total Blood Cholesterol [2] |
| --- | --- | --- | --- |
| CCc1cccc(CC)c1NC(=O)NC1(c2ccccc2)CCC1 [Example 2, N-(2,6-diethylphenyl)-N'-(1-phenylcyclobutyl)urea] | 230 nM |  |  |
| CCc1cccc(CC)c1NC(=O)NCC1(c2ccccc2)CC1 [Example 4, N-(2,6-diethylphenyl)-N'-[(1-phenylcyclopropyl)methyl]urea] | 88 nM |  |  |
| COc1cc(OC)c(NC(=O)NC2(c3ccccc3)CCCC2)c(OC)c1 [Example 5, N-(1-phenylcyclopentyl)-N'-(2,4,6-trimethoxyphenyl)urea] | 700 nM |  |  |
| CCc1cccc(CC)c1NC(=O)NC1(c2cccs2)CCCCC1 [Example 7, N-(2,6-diethylphenyl)-N'-[1-(2-thienyl)cyclohexyl]urea] | 48 nM |  |  |
| CC(C)c1cccc(C(C)C)c1NC(=O)NC1(c2cccs2)CCCCC1 [Example 8, N-[2,6-bis(1-methylethyl)]-N'-[1-(2-thienyl)cyclohexyl]urea] | 43 nM | -69% | 60 (Control = 181) mg/dl |
| CC(C)c1cccc(C(C)C)c1NC(=O)NCC1(c2ccccc2)CCCCC1 [Example 14] | 21 nM |  |  |
| Cc1cccc(C(C)C)c1NC(=O)NC1(c2cccs2)CCCCC1 [Example 15, N-[2-methyl-6-(1-methylethyl)-phenyl]-N'-[1-(2-thienyl)cyclohexyl]urea] | 230 nM |  |  |
| Cc1cccc(C(C)C)c1NC(=O)NCC1(c2ccccc2)CCCCC1 [Example 17, N-[2-methyl-6-(1-methylethyl)-phenyl]-N'-[(1-phenylcyclohexyl)methyl]urea] | 58 nM |  |  |
| CCc1cccc(C(C)C)c1NC(=O)NCC1(c2ccccc2)CCCCC1 [Example 19, N-[2-ethyl-6-(1-methylethyl)-phenyl]-N'-[(1-phenylcyclohexyl)methyl]urea] | 20 nM |  |  |
| Cc1cccc(C(C)C)c1NC(=O)NCC1(c2ccccc2)CCCC1 [Example 20, N-[2-methyl-6-(1-methylethyl)-phenyl]-N'-[(1-phenylcyclopentyl)methyl]urea] | 16 nM |  |  |
| Cc1cccc(C(C)(C)C)c1NC(=O)NCC1(c2ccccc2)CCCC1 [Example 21, N-[2-(1,1-dimethylethyl)-6-methylphenyl]-N'-[(1-phenylcyclopentyl)methyl]-urea] | 18 nM |  |  |
| O=C(Nc1ccc(F)cc1F)NC1(c2cccs2)CCCCC1 [Example 23, N-(2,4-difluorophenyl)-N'-[1-(2-thienyl)cyclohexyl]urea] | 370 nM |  |  |
| O=C(NCC1(c2ccccc2)CCCC1)Nc1ccc(F)cc1F [Example 24, N-(2,4-difluorophenyl)-N'-[(1-phenylcyclopentyl)methyl]urea] | 1280 nM |  |  |
| O=C(NCC1(c2ccccc2)CCCCC1)Nc1ccc(F)cc1F [Example 25, N-(2,4-difluorophenyl)-N'-[(1-phenylcyclohexyl)methyl]urea] | 790 nM |  |  |

Further lines, with some results ahead:

| IC50 [1] | SMILES | % Change [2] | Total Blood Cholesterol [2] |
| --- | --- | --- | --- |
| 80 nM | Cc1cccc(C)c1NC(=O)NC1(c2ccccc2)CCCC1 [Example 1, N-(2,6-dimethylphenyl)-N'-(1-phenylcyclopentyl)urea] |  |  |
| 120 nM | CCc1cccc(CC)c1NC(=O)NC1(c2ccccc2)CCCC1 [Example 3, N-(2,6-diethylphenyl)-N'-(1-phenylcyclopentyl)urea] |  |  |
| 130 nM | Cc1cccc(C)c1NC(=O)NC1(c2cccs2)CCCCC1 [Example 6, N-(2,6-dimethylphenyl)-N'-[1-(2-thienyl)cyclohexyl]urea] |  |  |
| 51 nM | CCc1cccc(CC)c1NC(=O)NCC1(c2ccccc2)CCCCC1 [Example 9, N-(2,6-diethylphenyl)-N'-[(1-phenylcyclohexyl)methyl]urea] |  |  |
| 154 nM | Cc1cccc(C)c1NC(=O)NCC1(c2ccccc2)CCCC1 [Example 10, N-(2,6-dimethylphenyl)-N'-[(1-phenylcyclopentyl)methyl]urea] |  |  |
| 81 nM | Cc1cccc(C)c1NC(=O)NCC1(c2ccccc2)CCCCC1 [Example 11, N-(2,6-dimethylphenyl)-N'-[(1-phenylcyclohexyl)methyl]urea] |  |  |
| 15 nM | CCc1cccc(CC)c1NC(=O)NCC1(c2ccccc2)CCCC1 [Example 12, N-(2,6-diethylphenyl)-N'-[(1-phenylcyclopentyl)methyl]urea] |  |  |
| 17 nM | CC(C)c1cccc(C(C)C)c1NC(=O)NCC1(c2ccccc2)CCCC1 [Example 13, N-[2,6-bis(1-methylethyl)phenyl]-N'-[(1-phenylcyclopentyl)methyl]urea] | -73% | 61 (Control = 224) mg/dl |
| 256 nM | Cc1cccc(C(C)(C)C)c1NC(=O)NC1(c2cccs2)CCCCC1 [Example 16, N-[2-(1,1-dimethylethyl)-6-methyl-phenyl]-N'-[1-(2-thienyl)cyclohexyl]urea] |  |  |
| 54 nM | Cc1cccc(C(C)(C)C)c1NC(=O)NCC1(c2ccccc2)CCCCC1 [Example 18, N-[2-(1,1-dimethylethyl)-6-methylphenyl]-N'-[(1-phenylcyclohexyl)methyl]-urea] |  |  |
| 25 nM | CCc1cccc(C(C)C)c1NC(=O)NCC1(c2ccccc2)CCCC1 [Example 22, N-[2-ethyl-6-(1-methylethyl)-phenyl]-N'-[(1-phenylcyclopentyl)methyl]urea] |  |  |
| 39 nM | O=C(NCC1(c2ccccc2)CCCCC1)Nc1c(Br)cc(F)cc1Br [Example 26, N-(2,6-dibromo-4-fluorophenyl)-N'-[(1-phenyl-cyclohexyl)methyl]urea] |  |  |
